# Source: US9834514B2, “Antibiotic sensitivity-restoring and photosensitive agents” (New Mexico Tech Research Foundation, priority 2015, dated 2017)
# Where two headings read alike, the source gives them in different places.
# What was measured:
# HeLa cells = assay: Compound 1 in DMSO versus liposomes on HeLa cells with light (MTT); type: cell-based; conditions: 1 μM; for Compound 1 pre-incubation to max killing: in the dark
# Procedure: An effective period of pre-incubation with the drug in the dark was determined to be about 28 hours for compound 1 in DMSO and 60 hours for liposomal delivery of compound 1. The cells were then irradiated with continuous white light for 2 minutes at a distance of 6.5 cm using a LumaCare™ light source. An MTT assay was carried out to evaluate cell viability 48 hours later.
# [1] = test system: S. pyogenes (ATCC No. 8133); assay: Light-activated killing, colony counts; type: cell-based; conditions: for Dark Toxicity: no light; for Light Toxicity: white light 2 minutes
# Procedure: (§1) Dose-dependent effects of treating bacteria with compound 1 and irradiation with white light were assessed by treating 10^8 CFU/mL of cells with compound 1, followed by irradiation with white light for 2 minutes. Compound 1 was added at a specific concentration to 1 mL of a 10^8 CFU/mL suspension of the respective bacterial cells, and the cells were incubated at 37° C. for approximately 45 minutes on a rotary shaker at 150 rpm. 0.5 mL of the cell suspension was removed and placed into the wells of a sterile ceramic drop plate, and then the cells were irradiated with white light from a Lumacare™ LC 122A light source for 2 minutes at a distance of approximately 3 cm. The time and distance of the light application delivered about 85 J/cm^2 of 400-700 nm light to the sample. After being irradiated, ten-fold dilutions were made of each cell sample. The dilutions were drip-streaked onto a tryptic soy agar (TSA) plate and incubated at 37° C. for 18-24 hours. Enumeration of bacteria was determined from the dilution, which produced a drip-streak containing approximately 30-300 colonies. After counting the colonies, the CFU/mL was calculated by applying the respective dilution factor and a factor of 100 to account for the 10 μL of sample taken. Appropriate controls were prepared, including cells with no treatment, cells with only compound 1 added, and cells only treated with light.
# (§2) The error bars in FIG. 12 represent the variations between three replicate determinations.
# [2] = test system: S. pyogenes (ATCC No. 8133); assay: MIC against S. pyogenes; type: cell-based; conditions: Streptococcus pyogenes, ATCC8133; compound alone
# From the text: as §2
# E. coli [3] = assay: Checkerboard assay (FICI); type: cell-based; conditions: with PMB
# Procedure: (§3) Another method for determining synergy is a checkerboard assay. A checkerboard assay is performed whereby one of the test compounds is serially diluted horizontally across a plate, while the other test compound is serially diluted vertically down the plate. The perpendicular serial dilutions result in combinations of the compounds that range in concentrations from the highest to the lowest of each compound added. In the present study, the checkerboard assay method was adjusted by serially diluting one of the test compounds horizontally and adding the second drug to each well at a concentration of ¼ MIC. The 24-well microtiter plate was then incubated at 37° C. for 18-24 hours on a rotary shaker incubator at 150 rpm. After incubation, MTT reagent was added to each well at a 10% sample volume. Synergy was determined on the lowest concentration of the combined drugs, which produced no purple coloring. Calculation of synergy was determined by the Fractional Inhibitory Concentration Index (FICI): FICI=([Drug 1]Synergy/[Drug1]MIC)+([Drug 2]Synergy/[Drug 2]MIC). FICI≦0.5 is an indication of synergy.
# (§4) TABLE 17 details the obtained FICI values for compound 1 in combination with varying antibiotics against MRSA, A. baumannii, and E. coli.
# A. baumannii [4] = assay: Checkerboard assay (FICI); type: cell-based; conditions: with PMB
# Procedure: as §3, §4
# MRSA = assay: Minimum bactericidal concentration (MBC) with and without white light; type: cell-based, S. aureus; conditions: Staphylococcus aureus, light or radiation study
# Procedure: The bacterial media was inoculated with bacteria and incubated overnight. The bacterial cultures were diluted to 5×10^8 CFU/mL using a McFarland latex turbidity standard (0.5). Compound 1 was diluted with sterile DMSO, which was added to the cell suspension in glass culture tubes. The cells were then incubated for 30 minutes at 37° C. on a rotary shaking incubator at 150 rpm. 500 μL of the treated cell suspension was added to a well on a sterile ceramic drop plate. Non-coherent white light from a Lumacare™ LC-122 unit was used to irradiate the samples. The end of the light probe was placed 3 cm above the sample well, perpendicular to the surface of the sample, and light was applied for 2 minutes (15 seconds light, 15 seconds dark). 200 μL of the irradiated sample was transferred to a 96-well plastic microtiter plate and five ten-fold dilutions were made in the media. 10 μL of each dilution was dripped onto an agar media plate and was allowed to streak down the plate by tilting the plate down. The agar plates were incubated at 37° C. overnight and colony counts were performed to calculate the CFU/mL.
# TABLE 14 details the MBC values of compounds 1-6 against MRSA with and without irradiation with white light. Irradiation involved treatment with a LumaCare™ light source at 3 cm from media for 1 min.
# [5] = test system: S. aureus (ATCC No. 29213); assay: Light-activated killing, colony counts; type: cell-based; conditions: for Dark Toxicity: no light; for Light Toxicity: white light 2 minutes
# Procedure: as §1
# The error bars in FIG. 10 represent the variations between three replicate determinations.
# E. coli [6] = assay: Resensitization to antibiotics (log reduction, TABLE 29); type: cell-based; conditions: compound 1 μM
# MRSA (ATCC No. BAA-44) = assay: Synergy of compound 1 with antibiotics, isobologram; type: cell-based, S. aureus; conditions: vancomycin, tetracycline, doxycycline, norfloxacin, dicloxicillin, oxacillin, penicillin G, tobramycin; FIGS. 14, 15
# From the text: The synergy of two compounds with varying relative potencies can be represented using an isobologram. An isobologram plots the normalized effective concentrations of each drug on each axis, where the sum of the two concentrations equals the line of additivity. Outside the line of additivity, when the sum>1, the effect of the two drugs is considered antagonistic; inside of the line of additivity, when the sum<1, the effect of the two drugs is considered superadditive, or when the sum≦0.5, the effect of the two drugs is considered synergistic.
# An illustrative example based on a single data point for each antibiotic in combination with compound 1 against MRSA (ATCC No. BAA-44) is shown in FIG. 14. A zoomed-in isobologram for the same data as shown in FIG. 14 is depicted in FIG. 15 specifically for the synergistic area.
# A. baumannii [7] = assay: Treatment with compound 1 and PMB at fixed concentrations, with and without white light; type: cell-based
# From the text: FIG. 53 is an example of the treatment of A. baumannii with compound 1 and PMB at fixed concentrations with and without irradiation using white light (λ).
smiles,measurement,setting,value
Clc1ccc(/C=C/c2[nH]c3ccccc3c2/C=C/c2ccc(Cl)cc2)cc1 [Compound 1],"Compound 1 (no light), killing",HeLa cells,6% killing
same,"Compound 1 + light, killing","HeLa cells; continuous white light 2 minutes, MTT 48 hours later",77% killing
same,Compound 1 pre-incubation to max killing,HeLa cells,28 h
same,Compound 1 pre-incubation to max killing,HeLa cells; listed as compound 1,about 28 hours
same,Dark Toxicity,[1]; 0.1 μM,7.13 × 10^6 ± 1.10 × 10^6 CFU/mL
same,Light Toxicity,[1]; 0.1 μM,None Detected (<100 CFU/mL)
same,Dark Toxicity,[1]; 0.5 μM,1.40 × 10^6 ± 7.05 × 10^5 CFU/mL
same,Light Toxicity,[1]; 0.5 μM,None Detected (<100 CFU/mL)
same,Dark Toxicity,[1]; 1.0 μM,4.13 × 10^6 ± 9.07 × 10^5 CFU/mL
same,Light Toxicity,[1]; 1.0 μM,None Detected (<100 CFU/mL)
same,Dark Toxicity,[1]; 5.0 μM,5.01 × 10^5 ± 4.07 × 10^5 CFU/mL
same,Light Toxicity,[1]; 5.0 μM,None Detected (<100 CFU/mL)
same,MIC,[2],100 µM
same,FIC Index,E. coli [3],0.2
same,FIC Index,A. baumannii [4],0.1
same,MBC,"MRSA; 1 min, LumaCare light source at 3 cm from media for 1 min, read-out: MBC with irradiation",1 µM
same,MBC,"MRSA; no irradiation, read-out: MBC in the dark",200 µM
same,Dark Toxicity,[5]; 0.1 μM,1.63 × 10^8 ± 1.72 × 10^7 CFU/mL
same,Light Toxicity,[5]; 0.1 μM,1.20 × 10^5 ± 5.12 × 10^4 CFU/mL
same,Dark Toxicity,[5]; 0.5 μM,2.67 × 10^6 ± 2.10 × 10^6 CFU/mL
same,Light Toxicity,[5]; 0.5 μM,1.60 × 10^3 ± 1.44 × 10^3 CFU/mL
same,Dark Toxicity,[5]; 1.0 μM,1.34 × 10^6 ± 3.04 × 10^5 CFU/mL
same,Light Toxicity,[5]; 1.0 μM,None detected (<100 CFU/mL)
same,Dark Toxicity,[5]; 5.1 μM,7.13 × 10^4 ± 1.80 × 10^4 CFU/mL
same,Light Toxicity,[5]; 5.1 μM,None detected (<100 CFU/mL)
same,Log Reduction,E. coli [6]; PMB (0.1 μg/mL),4
same,Log Reduction,E. coli [6]; PMB (0.1 μg/mL) + Light (2 min),7
same,synergy with antibiotics (isobologram),MRSA (ATCC No. BAA-44),able to synergize with every tested antibiotic
same,"cell killing with compound 1, PMB and white light",A. baumannii [7]; FIG. 53,PMB was more efficacious in cell killing when co-administered with compound 1 and light
same,killing by combination of compound 1 and PMB (CFU),"A. baumannii [7]; compared to either agent alone, FIG. 16",effective at killing A. baumannii
